Laboratory results: US9856262B2, “Analogues of 4H-pyrazolo[1,5-a] benzimidazole compound as PARP inhibitors” (HUBEI BIO-PHARMACEUTICAL INDUSTRIAL TECHNOLOGICAL INSTITUTE …, priority 2014, dated 2018)
pEC50, pIC50: −log10 of the molar value.

Experiments:
PARP-1 = target: T1, PARP-1 (Homo sapiens, UniProt P09874); assay: PARP enzymatic assay (HT Universal Colorimetric PARP1 Assay Kit); format: biochemical; conditions: read-out: PARP-1 enzymatic inhibition IC50
T1 construct: purchased
Procedure: PARP Enzymatic Assay (Following the Manual of HT Universal Colorimetric PARP1 Assay Kit).
Histone proteins were coated on a 96-well plate and incubated overnight at 4° C. After be washed 3 times with 200 ul PBST solution, the plate was blocked with a blocking solution and incubated for 30 min at room temperature, and then washed with PBST solution 3 times. A compound to be tested was treated and added to the plate. Thereafter, 20 μl of diluted PARP1 (1 nM) or 20 μl of PARP2 (3 nM) solution was added into the reaction system and incubated for 1 or 2 hours. 50 ul of streptavidin-HRP mixture (1:50) was added into the plate and incubated for 30 min at room temperature. The plate was then washed with three times with PBST buffer. 100 μl of (HRP) (Chemiluminescent substrate A and substrate B (1:1)) was added into the plate, and the plate was immediately read on a microplate reader (Envision, PerkinElmer).

HCC1937 cells = assay: Cellular PARylation assay; format: cell-based; conditions: Homo sapiens; HCC1937 cells, compound 30 min then 1 mM H2O2 10 min; read-out: cellular PARylation EC50
Procedure: Cellular PARylation Assay
HCC1937 cells were planted into 96 well plates at 4×10^4 cells/well and incubated at 37° C. in an incubator overnight. After being treated with a test compound for 30 min, cells were then treated with 1 mM H2O2 for 10 min. The cells were washed with 200 ul pre-chilled PBS twice and fixed with 100 ul pre-chilled methanol/acetone (7:3) on ice for 30 min. After being air-dried, the plates were blocked using PBS-Tween blocking solution (0.05%) with dissolved 5% nonfat dry milk for 30 min at room temperature. The cells were incubated with anti-PAR antibody 10H (1:100) at room temperature for 1 hour followed by washing with PBS-Tween20 for 3 times; and then added into a blocking solution including goat anti-mouse fluorescein isothiocyanate (FITC)-coupled secondary antibody and 1 μg/mL DAPI to incubate away from light at room temperature for 1 hour. After being washed with PBS-Tween20 for 3 times, the plate was analyzed with a fluorescence microplate counter (Flexstation III, Molecular Device).

T1 sequence (P09874 whole entry): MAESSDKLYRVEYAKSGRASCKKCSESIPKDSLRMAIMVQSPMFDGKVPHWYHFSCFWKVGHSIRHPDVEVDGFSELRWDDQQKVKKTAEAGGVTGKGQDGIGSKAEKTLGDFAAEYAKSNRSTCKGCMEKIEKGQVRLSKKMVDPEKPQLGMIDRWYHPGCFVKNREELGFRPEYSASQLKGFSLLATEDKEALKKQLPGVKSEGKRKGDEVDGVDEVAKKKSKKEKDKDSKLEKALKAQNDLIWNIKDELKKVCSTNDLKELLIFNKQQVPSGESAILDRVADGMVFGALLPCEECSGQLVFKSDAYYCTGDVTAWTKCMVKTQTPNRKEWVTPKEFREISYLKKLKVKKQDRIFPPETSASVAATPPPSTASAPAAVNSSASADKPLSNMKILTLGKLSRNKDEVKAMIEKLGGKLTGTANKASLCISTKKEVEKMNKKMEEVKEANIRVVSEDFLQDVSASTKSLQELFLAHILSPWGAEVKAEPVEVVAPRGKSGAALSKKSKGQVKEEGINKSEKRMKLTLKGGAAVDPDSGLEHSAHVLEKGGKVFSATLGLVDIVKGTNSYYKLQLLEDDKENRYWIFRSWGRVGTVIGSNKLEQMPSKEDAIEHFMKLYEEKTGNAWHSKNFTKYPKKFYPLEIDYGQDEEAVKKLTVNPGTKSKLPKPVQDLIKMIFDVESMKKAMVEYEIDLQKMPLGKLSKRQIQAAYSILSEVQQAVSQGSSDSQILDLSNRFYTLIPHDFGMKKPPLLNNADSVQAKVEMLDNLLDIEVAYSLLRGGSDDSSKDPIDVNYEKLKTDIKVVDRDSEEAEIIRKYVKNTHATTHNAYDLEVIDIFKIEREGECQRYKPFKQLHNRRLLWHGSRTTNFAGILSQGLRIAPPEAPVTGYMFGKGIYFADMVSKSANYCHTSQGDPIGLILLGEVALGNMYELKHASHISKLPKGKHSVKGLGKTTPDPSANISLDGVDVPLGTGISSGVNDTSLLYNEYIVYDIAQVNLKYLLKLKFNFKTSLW

Row | Compound | pIC50 (PARP-1) | pEC50 (HCC1937 cells)
1 | CC1(c2cnn3c2[nH]c2cc(F)cc(C(N)=O)c23)CCN(CC2(O)CC2)CC1 [Example 70, 6-fluoro-3-(1-((1-hydroxycyclopropyl)methyl)-4-methylpiperidin-4-yl)-4H-benzo[4,5]imidazo[1,2-b]pyrazole-8-carboxamide] | 7.00 to 9.00 | 7.00 to 9.00
2 | Cc1nn2c([nH]c3cc(F)cc(C(N)=O)c32)c1C1(C)CCN(CC2CC2)CC1 [Example 111, 3-(1-(cyclopropylmethyl)-4-methylpiperidin-4-yl)-6-fluoro-2-methyl-4H-benzo[4,5]imidazo[1,2-b]pyrazole-8-carboxamide] | 7.00 to 9.00 | 7.00 to 9.00
3 | CCN1CCC(N2CCC(C)(c3cnn4c3[nH]c3cc(F)cc(C(N)=O)c34)CC2)CC1 [Example 86, 3-(1′-ethyl-4-methyl-[1,4′-bipiperidin]-4-yl)-6-fluoro-4H-benzo[4,5]imidazo[1,2-b]pyrazole-8-carboxamide] | 7.00 to 9.00 | 7.00 to 9.00
4 | Cc1nn2c([nH]c3cc(F)cc(C(N)=O)c32)c1C1(C)CCN(C)CC1 [Example 115, 3-(1,4-dimethylpiperidin-4-yl)-6-fluoro-2-methyl-4H-benzo[4,5]imidazo[1,2-b]pyrazole-8-carboxamide] | 7.00 to 9.00 | 7.00 to 9.00
5 | CN(C)CCN1CCC(c2cnn3c2[nH]c2cc(F)cc(C(N)=O)c23)CC1 [Example 14, 3-(1-(2-(dimethylamino)ethyl)piperidin-4-yl)-6-fluoro-4H-benzo[4,5]imidazo[1,2-b]pyrazole-8-carboxamide] | 7.00 to 9.00 | 7.00 to 9.00
6 | N#CC1(c2cnn3c2[nH]c2cc(F)cc(C(N)=O)c23)CCN(CC2CC2)CC1 [Example 108, 3-(4-cyano-1-(cyclopropylmethyl)piperidin-4-yl)-6-fluoro-4H-benzo[4,5]imidazo[1,2-b]pyrazole-8-carboxamide] | 7.00 to 9.00 | 7.00 to 9.00
7 | NC(=O)c1cc(F)cc2[nH]c3c(-c4ccncc4)cnn3c12 [Example 45, 6-fluoro-3-(pyridin-4-yl)-4H-benzo[4,5]imidazo[1,2-b]pyrazole-8-carboxamide] | 6.00 to 7.00 | < 6.00
8 | Cc1nn2c([nH]c3cc(F)cc(C(N)=O)c32)c1C1(C)CCN(CC(C)(C)O)CC1 [Example 116, 6-fluoro-3-(1-(2-hydroxy-2-methylpropyl)-4-methylpiperidin-4-yl)-2-methyl-4H-benzo[4,5]imidazo[1,2-b]pyrazole-8-carboxamide] | 7.00 to 9.00 | 7.00 to 9.00
9 | CNCc1ccc(F)c(-c2cnn3c2[nH]c2cc(F)cc(C(N)=O)c23)c1 [Example 44, 6-fluoro-3-(2-fluoro-5-((methylamino)methyl)phenyl)-4H-benzo[4,5]imidazo[1,2-b]pyrazole-8-carboxamide] | 6.00 to 7.00 | 6.00 to 7.00
10 | CCN1CCC(C)(c2c(C)nn3c2[nH]c2cc(F)cc(C(N)=O)c23)CC1 [Example 112, 3-(1-ethyl-4-methylpiperidin-4-yl)-6-fluoro-2-methyl-4H-benzo[4,5]imidazo[1,2-b]pyrazole-8-carboxamide] | 7.00 to 9.00 | 7.00 to 9.00
11 | NC(=O)c1cc(F)cc2[nH]c3c(C4(CO)CCN(CC5CC5)CC4)cnn3c12 [Example 109, 3-(1-(cyclopropylmethyl)-4-(hydroxymethyl)piperidin-4-yl)-6-fluoro-4H-benzo[4,5]imidazo[1,2-b]pyrazole-8-carboxamide] | 7.00 to 9.00 | 6.00 to 7.00
12 | COCCN1CCC(C)(c2cnn3c2[nH]c2cc(F)cc(C(N)=O)c23)CC1 [Example 69, 6-fluoro-3-(1-(2-methoxyethyl)-4-methylpiperidin-4-yl)-4H-benzo[4,5]imidazo[1,2-b]pyrazole-8-carboxamide] | 7.00 to 9.00 | 7.00 to 9.00
13 | CC1(c2cnn3c2[nH]c2cc(F)cc(C(N)=O)c23)CCN(CC2(S(C)(=O)=O)CC2)CC1 [Example 73, 6-fluoro-3-(4-methyl-1-((1-(methylsulfonyl)cyclopropyl)methyl)piperidin-4-yl)-4H-benzo[4,5]imidazo[1,2-b]pyrazole-8-carboxamide] | 7.00 to 9.00 | 7.00 to 9.00
14 | CCN1CCC(C)(c2cnn3c2[nH]c2cc(Cl)cc(C(N)=O)c23)CC1 [Example 89, 6-chloro-3-(1-ethyl-4-methylpiperidin-4-yl)-4H-benzo[4,5]imidazo[1,2-b]pyrazole-8-carboxamide] | 7.00 to 9.00 | 6.00 to 7.00
15 | CC1(c2cnn3c2[nH]c2cc(F)cc(C(N)=O)c23)CCN(CCS(C)(=O)=O)CC1 [Example 65, 6-fluoro-3-(4-methyl-1-(2-(methylsulfonyl)ethyl)piperidin-4-yl)-4H-benzo[4,5]imidazo[1,2-b]pyrazole-8-carboxamide] | 7.00 to 9.00 | 7.00 to 9.00

Continued, values first:

Row | pIC50 (PARP-1) | pEC50 (HCC1937 cells) | Compound
16 | 7.00 to 9.00 | 6.00 to 7.00 | NC(=O)c1cc(F)cc2[nH]c3c(C4CC(O)CN4)cnn3c12 (stereo not drawn) [Example 36, 6-fluoro-3-(4-hydroxypyrrolidin-2-yl)-4H-benzo[4,5]imidazo[1,2-b]pyrazole-8-carboxamide]
17 | 7.00 to 9.00 | 7.00 to 9.00 | NC(=O)c1cc(F)cc2[nH]c3c(C4CCN(C5CC5)CC4)cnn3c12 [Example 4, 3-(1-cyclopropylpiperidin-4-yl)-6-fluoro-4H-benzo[4,5]imidazo[1,2-b]pyrazole-8-carboxamide]
18 | 7.00 to 9.00 | 6.00 to 7.00 | CCN1CCCC1c1cnn2c1[nH]c1cc(F)cc(C(N)=O)c12 (stereo not drawn) [Example 26, 3-(1-ethylpyrrolidin-2-yl)-6-fluoro-4H-benzo[4,5]imidazo[1,2-b]pyrazole-8-carboxamide]
19 | 7.00 to 9.00 | 7.00 to 9.00 | NC(=O)c1cc(F)cc2[nH]c3c(C4CCCN4)cnn3c12 (stereo not drawn) [Example 23, 6-fluoro-3-(pyrrolidin-2-yl)-4H-benzo[4,5]imidazo[1,2-b]pyrazole-8-carboxamide]
20 | 7.00 to 9.00 | 6.00 to 7.00 | NC(=O)c1cc(F)cc2[nH]c3c(C4CCNCC4)cnn3c12 [Example 1, 6-fluoro-3-(piperidin-4-yl)-4H-benzo[4,5]imidazo[1,2-b]pyrazole-8-carboxamide]
21 | 7.00 to 9.00 | 7.00 to 9.00 | CC(C)N1CC2CC2(c2cnn3c2[nH]c2cc(F)cc(C(N)=O)c23)C1 (stereo not drawn) [Example 32, 6-fluoro-3-(3-isopropyl-3-azabicyclo[3.1.0]hexan-1-yl)-4H-benzo[4,5]imidazo[1,2-b]pyrazole-8-carboxamide]
22 | 7.00 to 9.00 | < 6.00 | N#Cc1cnn2c1[nH]c1cc(F)cc(C(N)=O)c12 [Example 37, 3-cyano-6-fluoro-4H-benzo[4,5]imidazo[1,2-b]pyrazole-8-carboxamide]
23 | 7.00 to 9.00 | 7.00 to 9.00 | CC1(c2cnn3c2[nH]c2cc(F)cc(C(N)=O)c23)CCN(CC2(N)CC2)C1 (stereo not drawn) [Example 100, 3-(1-((1-aminocyclopropyl)methyl)-3-methylpyrrolidin-3-yl)-6-fluoro-4H-benzo[4,5]imidazo[1,2-b]pyrazole-8-carboxamide]
24 | 7.00 to 9.00 | 6.00 to 7.00 | CC1(c2cnn3c2[nH]c2cc(F)cc(C(N)=O)c23)CCS(=O)(=O)CC1 [Example 106, 6-fluoro-3-(4-methyl-1,1-dioxidotetrahydro-2H-thiopyran-4-yl)-4H-benzo[4,5]imidazo[1,2-b]pyrazole-8-carboxamide]
25 | 7.00 to 9.00 | 7.00 to 9.00 | CC(C)(O)CN1CCC(c2cnn3c2[nH]c2cc(F)cc(C(N)=O)c23)CC1 [Example 6, 6-fluoro-3-(1-(2-hydroxy-2-methylpropyl)piperidin-4-yl)-4H-benzo[4,5]imidazo[1,2-b]pyrazole-8-carboxamide]
26 | 7.00 to 9.00 | 7.00 to 9.00 | COCCN1CCC(c2cnn3c2[nH]c2cc(F)cc(C(N)=O)c23)CC1 [Example 15, 6-fluoro-3-(1-(2-methoxyethyl)piperidin-4-yl)-4H-benzo[4,5]imidazo[1,2-b]pyrazole-8-carboxamide]
27 | 7.00 to 9.00 | 7.00 to 9.00 | CC1(c2cnn3c2[nH]c2cc(F)cc(C(N)=O)c23)CN(CC2CC2)C1 [Example 104, 3-(1-(cyclopropylmethyl)-3-methylazetidin-3-yl)-6-fluoro-4H-benzo[4,5]imidazo[1,2-b]pyrazole-8-carboxamide]
28 | 7.00 to 9.00 | 6.00 to 7.00 | CCN1CC2C(C1)C2c1cnn2c1[nH]c1cc(F)cc(C(N)=O)c12 (stereo not drawn) [Example 34, 3-(3-ethyl-3-azabicyclo[3.1.0]hexan-6-yl)-6-fluoro-4H-benzo[4,5]imidazo[1,2-b]pyrazole-8-carboxamide]
29 | 7.00 to 9.00 | 7.00 to 9.00 | NC(=O)c1cc(F)cc2[nH]c3c(C4CCN(CCF)CC4)cnn3c12 [Example 3, 6-fluoro-3-(1-(2-fluoroethyl)piperidin-4-yl)-4H-benzo[4,5]imidazo[1,2-b]pyrazole-8-carboxamide]
30 | 7.00 to 9.00 | 6.00 to 7.00 | NC(=O)c1cc(F)cc2[nH]c3c(C4C5CNCC54)cnn3c12 (stereo not drawn) [Example 33, 3-(3-azabicyclo[3.1.0]hexan-6-yl)-6-fluoro-4H-benzo[4,5]imidazo[1,2-b]pyrazole-8-carboxamide]
